melting point [°C] | SMILES
91.5 to 92.5 | CCOc1nc(Cc2ccc(Cl)cc2)nc(O)c1NC(=O)c1ccco1
92 to 93 | Cc1oc(-c2ccccc2)nc1CCC(=O)c1ccc(CCC=O)cc1
193 to 194 | COc1cccc(CNc2nc(SCc3ccccc3)nc3nc[nH]c23)c1O
134 to 136 | CN1CCC(=C2c3ccccc3COc3ccc(C#N)cc32)CC1
100 | Cc1cccc(NC(=O)NCC(=O)N(c2ccccc2)C(C(=O)OC(C)(C)C)c2cccc(Cl)c2)c1 (racemic)
118 to 119 | COc1cc(C=O)ccc1OCc1sc(-c2ccccc2)nc1C
106 | COC(=O)c1ccc(/C=C(\C)c2ccc3c(c2)CCCCN3C)cc1
197 to 198 | CCCCc1nc2c(N)nc3ccccc3c2n1CCCNS(=O)(=O)c1ccc(C)cc1
174 to 175 | CC(C)(C)c1ccc(C(=O)n2c3c(c4ccccc42)CC(C(=O)O)CC3)cc1 (centres undefined)
298 to 300 | O=C1CCC(N2Cc3cc(CNC(=O)Nc4cccc(Oc5ccccn5)c4)ccc3C2=O)C(=O)N1 (centres undefined)
204 to 207 | Clc1ccc(-c2c[nH]nc2-c2ccncc2)cc1
99 to 101 | O=c1c2ccccc2cc2n1CCCCC2
185 to 189 | Nc1ncc(CCN2CCN(c3ccccc3)CC2)s1
150 to 152 | CN1CCN(c2nn(-c3ccc(Cl)cc3Cl)c3ccccc23)CC1
117 to 119 | COc1ccc(C(=O)C(=O)c2ccncc2)cc1OC1CCCC1
184 to 185 | CCCn1c(=O)c2c(N)n(CC(=O)c3cccc(OC)c3)nc2n(Cc2ccccc2)c1=O
151 to 152 | COc1ccc2nc(NN)nc(-c3ccccc3)c2c1
128 to 129 | CC(C)(C)OC(=O)N1CC[C@H](c2ccc3c(c2)OCO3)[C@@H](OCc2ccc3ccccc3c2)C1 (racemic)
214 to 215 | Fc1ccc(-n2nc(-c3cccc(C(F)(F)F)c3)c3ncccc3c2=S)cc1
110 | CC(C)Oc1ccc(C=O)cc1OCCN1C(=O)c2ccccc2C1=O
227 to 228 | O=C1c2ccc(O)cc2C(=O)C1c1ccc(O)cc1 (centres undefined)
225 to 226 | COc1ccc(C#Cc2ccc3c(Nc4cc(OC)c(Cl)cc4Cl)c(C#N)cnc3c2)cc1
46 to 47 | COC(=O)[C@H](O)Cc1ccccc1
185 to 186 | COC[C@](C#N)(C(=O)NCC(C)(C)C)[C@H](c1ccccc1OC)c1cccc2ccccc12 (relative stereo)

melting point [°C] | SMILES
165 to 169 | COC(=O)C=CN1c2ccccc2Sc2nccnc21
262 to 263 | Cn1c2c(c3ccccc31)CC(C(=O)O)N(C(=O)c1ccc(Cl)cc1)C2 (centres undefined)
99 to 101 | Cc1ccc(S(=O)(=O)OCC2Cc3cccc(-c4ccccc4F)c3O2)cc1 (centres undefined)
74.5 to 75 | C=CCOc1ccc(C(=O)C=Cc2ccc(OC)cc2OC)cc1
169 to 170 | c1ccc(-n2cc3c(n2)-n2cccc2C3(Cc2ccncc2)Cc2ccncc2)cc1
172 | Cc1ccc(S(=O)(=O)n2c(CCCC(=O)O)cc3nc(Cl)ccc32)cc1
173 to 174 | O=C(O)Cc1ccc2noc(-c3ccccc3)c2c1
76 to 78 | O=C(C=Cc1ccc[nH]1)c1ccccc1Br
152 to 155 | COc1ccc(C)cc1NC(=O)Nc1ccc(N2CCN(C(=O)Nc3ccc(CO)cc3Cl)CC2)cc1
66 to 67 | c1ccc2cc(Cc3ccncc3)ccc2c1
171 to 172 | COc1cc(C)c(C(=O)c2ccc(OCc3nc(-c4ccccc4)oc3C)cc2)c(O)c1
95 to 96 | O=C(O)CCCCCc1nn(-c2ccccc2)c2c1CCC2
257 to 259 | Oc1cccc2c1nc(-c1c(F)cccc1F)n2Cc1c(F)cccc1F
166 to 168 | Cc1cc(C)nc(NC(=O)NS(=O)(=O)c2ccccc2C(=O)N(C)C)c1
125 to 127 | C=CCOC(=O)Cc1cccc(NC(=O)NCNC(=O)c2ccccc2C(=O)c2ccccc2)c1
131 | CCOC(=O)c1c(-c2ccc(CBr)cc2)nc2ccccn12
219 | COc1ccc2cc(-c3ccc(-n4nc(C)nc4C)c(Cl)c3)c(=O)oc2c1
242 to 243 | Cc1c(-c2ccncc2)nc2n(c1=O)CCCN2
85 to 86 | Oc1ccc(Oc2ccc(Cl)cc2)cc1
251 to 253 | COc1ccc(NC(=O)C2=C(O)c3ccccc3S(=O)(=O)N2C)c(=O)cc1
155 to 157 | COC(=O)C(=O)c1ccc(OCCOc2ccc3ccccc3c2)cc1
143 to 145 | O=C(NCCCCCCCCc1ccccc1)c1cc(-c2cccc(C(F)(F)F)c2)c(OCCO)c(-c2cccc(C(F)(F)F)c2)c1
37 to 41 | CC(C)CCCC(C)NC(=O)Oc1ccc(Oc2ccccc2)cc1F (centres undefined)

The remaining lines, values behind:

SMILES | melting point [°C]
CCCCCCCCCCOc1cc(OCCCOc2ccc(O)cc2)cc(C(=O)O)c1 | 106 to 109
O=C(O)CCc1cccc(OCc2cn(-c3ccc(C(F)(F)F)cn3)nc2C2CCCCC2)c1 | 94 to 95
C#CCOC(=O)C1=C(C)NC(C)=C(C(=O)OC)C1c1ccccc1C(F)(F)F (centres undefined) | 115
COC(=O)C1=C(SC)N(c2c(C)cc(C)cc2Cl)CCC1 | 85.3 to 87.6
CCCOC1(C=O)C=CCC(OC)(N2CCC(c3noc4cc(F)ccc34)CC2)C1O (centres undefined) | 107 to 108
COc1cc2c(cc1Nc1ncc(Cl)c(N[C@H]3[C@@H](C(N)=O)[C@@H]4C=C[C@H]3C4)n1)NC(=O)CN(CC1CC1)C2 | 152
Cc1cc2c(c(C(C)(C)C)c1)OC(=O)C2OC(=O)CCc1cc(C(C)(C)C)c(O)c(C(C)(C)C)c1 (centres undefined) | 151 to 154
CCOC(=O)Cn1c2c(c3cc(Cl)c(Cl)cc31)CCN(C(=O)OC(C)(C)C)CC2 | 138 to 140
CCC(C)C(C)C(=O)Nc1ccc2ncnc(NC=C(C(=O)OC)C(=O)OC)c2c1 (centres undefined) | 216 to 217
COc1ccc(C(=O)Cc2c(Cl)cncc2Cl)c2c1OC1(CCCC1)O2 | 110 to 112
O=[N+]([O-])c1cccc([N+](=O)[O-])c1F | 50
CCCc1c(OCCCCCOc2ccc(C(=O)CCC(=O)O)cc2CCC(=O)O)ccc2c1OCCC2=O | 182 to 184
O=C1CCCC(CN2CCN(c3ccccn3)CC2)C1 (centres undefined) | 86 to 90
COc1ccc(CBr)c(CBr)c1 | 48 to 50
CNC(=O)c1cc(C(=O)OC)cc(C(=O)NC)n1 | 202 to 203
COC(=O)C1=CC(=O)CCC1c1cccs1 (racemic) | 69
Cc1c(-c2cc(Nc3cc4n(n3)CCN(C)C4)c(=O)[nH]n2)cccc1N1Cc2ccc(C(C)(C)C)cc2C1=O | 208 to 210
CC1CCCC(Cl)(Cl)C(=O)N1 (centres undefined) | 132 to 134
COc1cccc(-c2cc(C)cc3c2OC(CN)C3)c1OC (centres undefined) | 97 to 99
CC(C)(C)C(O)(CCC1CCCCC1)Cn1cncn1 (centres undefined) | 63 to 67
COCc1nc(N)nc(N)c1-c1ccc(Cl)cc1Cl | 183 to 185
O=[N+]([O-])c1cc(Cl)ccc1CBr | 42 to 43
FC(F)(F)CC1(CC2(CC(F)(F)F)N=c3cc(Cl)c(Cl)cc3=N2)N=c2cc(Cl)c(Cl)cc2=N1 | 235 to 237
O=C(CCCN1CCC(c2ccccc2)CC1)c1ccc2c(c1)Cc1cc(C(=O)CCCN3CCC(c4ccccc4)CC3)ccc1-2 | 190 to 192
Cc1c(C(=O)c2cnn(C(C)(C)C)c2O)ccc(S(C)(=O)=O)c1-c1ccc(S(C)(=O)=O)cc1 | 187 to 188
CC(C)c1cccc(C(C)C)c1NC(=O)NS(=O)(=O)Oc1c(C(C)C)cccc1C(C)C | 186 to 189

SMILES | melting point [°C]
CC1(c2ccc(C#N)cc2)Cc2cc(O)c(Cl)c(Cl)c2C1=O (centres undefined) | 189 to 196
CC(C)(C)OC(=O)[C@H]1CC[C@@H](c2ccccn2)N1C(=O)CNC(=O)Nc1cccc(C(=O)O)c1 (racemic) | 174
N#Cc1cnn(-c2ccc(Cl)c(Cl)c2Cl)c1NC=O | 190 to 192
O=C1Cc2cc(C(F)(F)F)ccc2N1 | 188 to 190
CC1(C)CCC(C)(C)c2cc(-c3cc(-c4ccc(C(=O)O)cc4)ccc3OCCCCNC3CC3)ccc21 | 160
CN(C)C(=O)c1cc(Cl)ccc1N | 97 to 98
CCOC(=O)c1c(CC)nc2c(C(F)(F)F)cccc2c1O | 129
Cc1nc(Cl)c2c3c(oc2n1)CCCC3 | 42.4 to 43.8
CCCCCCCCCCOc1cc(OCCCCCCCCCC)cc(N(CC(=O)O)CC(=O)O)c1 | 110 to 114
CNc1cc(Cl)cc(C)n1 | 69 to 70
COC(=O)[C@H](Cc1ccc(NC(=O)c2c(Cl)cccc2Cl)cc1)NC(=S)C1(CCCSC)CCC1 | 184 to 186
NNC(=O)CCSCCOC1OC(CO)C(O)C(O)C1O (centres undefined) | 178 to 179
COC1CCN(C2CCN(c3ccc(N)cc3C#N)CC2)CC1 | 125 to 130
NS(=O)(=O)Oc1cccc(Br)c1 | 90 to 91.5
CCOCN1C(C)=C(C(C)=O)C(c2cccc([N+](=O)[O-])c2)C(C(=O)OCC)=C1C (centres undefined) | 110 to 111
CCCCCn1cc(C(=O)O)c(=O)cc1C | 126
CCc1cc(C(=O)O)c(S(N)(=O)=O)o1 | 186
CC1(C)OC(=S)Nc2ccc(-c3cc(Cl)cc(C#N)c3)cc21 | 249 to 251
CCCCCCCCCCCCCCCCCCOc1cccc(N)c1 | 77 to 78
CC(C)C(C)(N)C(N)=S (centres undefined) | 98 to 100
Cc1cc(=O)c2ccc(OCC(O)CNC(C)C)cc2o1 (centres undefined) | 80 to 82
CC(C(=O)O)c1ccc(N2C(=O)C3CCCCC3C2=O)cc1 (centres undefined) | 224 to 226
N#CCSC(=S)SCCc1ccccc1 | 72 to 73
CCCCCCCCCCCCCCCCOC(=O)Nc1ccc(NC(=O)NS(=O)(=O)c2ccc(OC)cc2)cc1 | 185
CCOC(=O)/C=C/C=C/c1cccc(-c2c(CC(=O)Nc3ccc(F)cc3C(F)(F)F)c(=O)oc3cc(Cl)c(C)cc23)c1 | 216 to 218
Fc1ccc(F)c(CN2CCNc3ncc(-c4ccnc(N5CCOCC5)c4)cc32)c1Cl | 157

Reference: a melting point compilation (Tetko et al.; mined from patent text by program, amines drawn as free bases though some values may be those of a salt)
